Test results reported in patent publication US20250017940A1, “SELECTIVE PEPTIDOMIMETIC MODULATORS OF CAV2.2 (N-TYPE) VOLTAGE-GATED CALCIUM CHANNELS AND USES THEREOF” (New York University, priority 2023, published 2025).

Columns and labels:
[1] = tested on: Na+ channels; assay: Whole-cell patch-clamp, total Na+ currents in DRG neurons; type: cell-based, rat
Experimental: Recordings were obtained from acutely dissociated DRG neurons as described earlier (Bellampalli et al., 2019). Patch-clamp recordings were performed at room temperature (22-24° C.). Currents were recorded using an EPC 10 Amplifier-HEKA (HEKA Elektronik, Ludwigshafen, Germany) linked to a computer with Patchmaster software. DRG neurons were incubated overnight (˜16-24 hours) with 20 μM of CBD3063.
For Na^+ current (INa^+) recordings, the external solution contained (in mM): 130 NaCl, 3 KCl, 30 tetraethylammonium chloride, 1 CaCl2, 0.5 CdCl2, 1 MgCl2, 10 D-glucose, and 10 HEPES (pH 7.3 adjusted with NaOH, and mOsm/L=324). Patch pipettes were filled with an internal solution containing (in mM): 140 CsF, 1.1Cs-EGTA, 10 NaCl, and 15 HEPES (pH 7.3 adjusted with CsOH, and mOsm/L=311). Peak Na^+ current was acquired by applying 150-millisecond voltage steps from −70 to +60 mV in 5-mV increments from a holding potential of −60 mV to obtain the current-voltage (I-V) relation.
Normalization of currents to each cell's capacitance (pF) was performed to allow for collection of current density data. For I-V curves, functions were fitted to data using a non-linear least squares analysis. I-V curves were fitted using double Boltzmann functions:
Activation curves were obtained from the I-V curves by dividing the peak current at each depolarizing step by the driving force according to the equation: G=I/(Vmem-Erev), where I is the peak current, Vmem is the membrane potential and Erev is the reversal potential. The conductance (G) was normalized against the maximum conductance (Gmax). For total and the different subtypes of Ca^2+ currents, steady-state inactivation (SSI) curves were obtained by applying an H-infinity protocol that consisted of 1.5-seconds conditioning pre-pulses from −100 to +30 mV in 10-mV increments followed by a 20-millisecond test pulse to +10 mV. For Na^+ currents, SSI curves were obtained by applying an H-infinity protocol that consisted of 1-second conditioning pre-pulses from −120 to +10 mV in 10-mV increments followed by a 200-millisecond test pulse to +10 mV. Inactivation curves were obtained by dividing the peak current recorded at the test pulse by the maximum current (Imax). Activation and SSI curves were fitted with the Boltzmann equation.

[2] = molecular target: T1, Cav2.2-CRMP2 interaction (Mus musculus, UniProt O55017); assay: CRMP2 immunoprecipitation to detect Cav2.2 in CAD cells; type: cell-based
T1 construct: a mouse neuronal cell line expressing both CRMP2 and Cav2.2; endogenous in cells; host or cells: mouse CAD cells (ECACC Cat #08100805)
Experimental: (§1) Mouse neuron derived Cathecholamine A differentiated CAD cells (ECACC Cat #08100805, RRID: CVCL_0199) were grown in standard cell culture conditions, 37° C. in 5% (vol/vol) CO2. The cells were maintained in DMEM/F12 media supplemented with 10% (vol/vol) FBS (HyClone) and 1% penicillin/streptomycin sulfate from 10,000 μg/mL stock.
CAD cells were incubated overnight with a vehicle (0.1% DMSO) or CBD3063 (20 μM). The next day the cells were lysed into the IP buffer containing 20 mM Tris-HCl pH=7.4, 50 mM NaCl, 2 mM MgCl2, 10 mM N-Ethylmaleimide (NEM), 1% (vol/vol) NP-40, 0.5% (mass/vol) sodium deoxycholate, 0.1% (mass/vol) sodium dodecyl sulfate (SDS) with protease inhibitors (Cat #B14002, Biotool, Houston, TX), phosphatase inhibitors (Cat #B15002, Biotool, Houston, TX) and Nuclease (Cat #88701, Thermo Fisher Scientific, Waltham, MA). Total protein concentration was determined by BCA protein assay kit (Cat #PI23225, Thermo Fisher Scientific, Waltham, MA). Five hundred micrograms of total protein were incubated overnight with 2 μg of CRMP2 antibody (Cat #C2993, Sigma-Aldrich, St. Louis, MO) at 4° C. under gentle agitation. Protein G magnetic beads (Cat #10004D, Thermo Fisher Scientific, Waltham, MA), pre-equilibrated with the immunoprecipitation buffer, were then added to the lysates and incubated for 2 hours at 4° C. to capture immuno-complexes. […]

[3] = tested on: CRMP2; assay: Immunoblot of CRMP2 phosphorylation in CAD cells; type: cell-based, mouse; conditions: overnight incubation of CBD3063 (20 µM)
Experimental: as §1
Indicated samples were loaded on 4-20% Novex gels (cat. no. XP04205BOX; Thermo Fisher Scientific, Waltham, MA). Proteins were transferred to preactivated PVDF membranes for 1 hour at 100 V using TGS [25 mM Tris, pH 8.5, 192 mM glycine, 0.1% (mass/vol) SDS], 20% (vol/vol) methanol as transfer buffer (0.45 μm; Cat #IPVH00010; Millipore Sigma, St. Louis, MO). After transfer, the membranes were blocked at room temperature for 1 hour with TBST (50 mM Tris·HCl, pH 7.4, 150 mM NaCl, 0.1% Tween 20) with 5% (mass/vol) nonfat dry milk, and then incubated overnight at 4° C. separately with indicated primary antibodies, β111-Tubulin (Cat #G7121; Promega, Madison, WI), CRMP2 (Cat #C2993; Sigma-Aldrich, St. Louis, MO), Cav2.2 (Cat #TA308673; Origene, Rockville, MD), CRMP2 pSer522 (Cat #CP2191; ECM Biosciences, Versailles, KY), and CRMP2 pThr514 (Cat #PA5-110113; Invitrogen, Waltham, MA), in TBST, 5% (mass/vol) BSA. For examining the effect of CBD3063 on CRMP2 phosphorylation state, CAD cells were treated overnight with vehicle (0.1% DMSO) or CBD3063 (20 μM) and the next day cells were lysed using RIPA buffer. Approximately 40 μg of total proteins were loaded on an SDS-PAGE and then transferred to polyvinylidene difluoride membranes and blocked at room temperature for 1 hour. Primary antibodies used for probing were CRMP2 (Cat #C2993, Sigma-Aldrich, St Louis, MO), CRMP2 pThr514 (Cat #PB-043, Kinasource, Dundee, Scotland, United Kingdom), CRMP2 pSer522 (Cat #CP2191, ECM Biosciences, Versailles, KY), and CRMP2 pT555 (Cat #CP2251, ECM Biosciences, Versailles, KY).

[4] = 20 μM overnight, mean ± SEM (n cells)

T1 sequence (O55017 whole entry): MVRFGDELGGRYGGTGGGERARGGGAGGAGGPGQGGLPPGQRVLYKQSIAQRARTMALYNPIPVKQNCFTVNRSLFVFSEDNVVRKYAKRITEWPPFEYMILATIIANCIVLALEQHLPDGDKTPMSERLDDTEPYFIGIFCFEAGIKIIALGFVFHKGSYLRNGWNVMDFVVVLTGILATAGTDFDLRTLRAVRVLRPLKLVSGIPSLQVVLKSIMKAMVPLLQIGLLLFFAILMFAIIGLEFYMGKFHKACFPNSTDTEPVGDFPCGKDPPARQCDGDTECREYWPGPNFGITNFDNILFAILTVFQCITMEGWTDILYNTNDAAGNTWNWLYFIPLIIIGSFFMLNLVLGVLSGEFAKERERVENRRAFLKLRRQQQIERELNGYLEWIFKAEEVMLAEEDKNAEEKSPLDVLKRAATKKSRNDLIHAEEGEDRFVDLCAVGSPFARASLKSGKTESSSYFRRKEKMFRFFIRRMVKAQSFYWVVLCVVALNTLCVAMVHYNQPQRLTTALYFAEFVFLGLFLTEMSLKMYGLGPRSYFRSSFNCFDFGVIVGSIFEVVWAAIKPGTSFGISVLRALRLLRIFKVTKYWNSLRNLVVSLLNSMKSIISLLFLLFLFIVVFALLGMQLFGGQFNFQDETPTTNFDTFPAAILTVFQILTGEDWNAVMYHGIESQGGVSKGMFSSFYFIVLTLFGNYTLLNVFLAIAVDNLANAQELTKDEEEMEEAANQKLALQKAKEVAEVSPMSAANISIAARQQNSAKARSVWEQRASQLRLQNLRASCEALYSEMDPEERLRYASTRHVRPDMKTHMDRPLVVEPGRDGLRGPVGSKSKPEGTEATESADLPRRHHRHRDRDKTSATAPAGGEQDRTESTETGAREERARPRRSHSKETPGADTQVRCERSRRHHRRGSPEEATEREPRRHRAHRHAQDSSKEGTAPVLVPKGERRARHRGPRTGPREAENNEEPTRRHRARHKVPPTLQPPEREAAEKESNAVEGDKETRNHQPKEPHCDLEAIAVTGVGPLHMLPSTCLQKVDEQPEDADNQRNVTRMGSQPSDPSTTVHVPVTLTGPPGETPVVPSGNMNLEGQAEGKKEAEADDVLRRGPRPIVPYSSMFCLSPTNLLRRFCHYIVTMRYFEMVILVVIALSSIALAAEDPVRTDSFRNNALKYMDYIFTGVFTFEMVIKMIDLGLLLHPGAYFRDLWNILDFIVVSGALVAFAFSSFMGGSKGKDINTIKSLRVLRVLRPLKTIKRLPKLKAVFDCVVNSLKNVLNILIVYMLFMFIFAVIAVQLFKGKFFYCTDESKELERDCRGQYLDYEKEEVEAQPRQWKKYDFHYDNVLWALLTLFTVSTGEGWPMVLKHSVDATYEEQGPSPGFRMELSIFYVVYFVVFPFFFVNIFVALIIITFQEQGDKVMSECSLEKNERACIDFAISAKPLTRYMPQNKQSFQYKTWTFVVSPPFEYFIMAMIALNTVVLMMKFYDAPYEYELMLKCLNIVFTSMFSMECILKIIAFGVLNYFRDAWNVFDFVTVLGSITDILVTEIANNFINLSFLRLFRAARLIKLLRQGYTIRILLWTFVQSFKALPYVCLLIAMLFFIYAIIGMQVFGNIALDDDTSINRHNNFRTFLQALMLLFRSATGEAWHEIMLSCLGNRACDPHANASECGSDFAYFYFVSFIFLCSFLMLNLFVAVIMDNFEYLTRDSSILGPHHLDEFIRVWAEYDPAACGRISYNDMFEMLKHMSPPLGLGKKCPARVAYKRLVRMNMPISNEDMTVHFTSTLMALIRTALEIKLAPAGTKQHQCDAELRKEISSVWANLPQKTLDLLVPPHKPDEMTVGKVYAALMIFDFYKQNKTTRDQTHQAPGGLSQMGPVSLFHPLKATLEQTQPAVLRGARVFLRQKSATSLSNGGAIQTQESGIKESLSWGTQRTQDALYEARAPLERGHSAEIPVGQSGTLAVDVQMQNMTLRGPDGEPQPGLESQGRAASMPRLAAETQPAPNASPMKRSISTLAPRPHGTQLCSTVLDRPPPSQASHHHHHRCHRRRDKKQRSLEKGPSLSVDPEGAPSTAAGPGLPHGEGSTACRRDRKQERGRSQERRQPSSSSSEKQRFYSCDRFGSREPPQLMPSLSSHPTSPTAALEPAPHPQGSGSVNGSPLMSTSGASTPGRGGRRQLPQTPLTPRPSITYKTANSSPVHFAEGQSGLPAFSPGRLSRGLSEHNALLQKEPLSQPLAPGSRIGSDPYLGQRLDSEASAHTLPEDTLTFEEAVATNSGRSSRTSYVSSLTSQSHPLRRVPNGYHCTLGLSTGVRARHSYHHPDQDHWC

relative Cav2.2 binding to CRMP2 ([2]; 20 μM overnight (DMSO: 1.00±0.05)): 0.64±0.02 | reduction in the level of Cav2.2 protein immunoprecipitated by CRMP2 ([2]; 20 μM overnight, versus control): ~35%
SMILES: CC(=O)N[C@@H]1CCCN(C(=O)NCCCNc2ccccn2)C1 [CBD3063, (3R)-3-acetamido-N-[3-(pyridin-2-ylamino)propyl]piperidine-1-carboxamide]
peak Na+ current density ([1]; 20 μM overnight (DMSO: −455.7±78.70)): −455.0±60.79 pA/pF | Na+ currents, activation V1/2 [1, 4]: −21.738 ± 0.852 (12) mV | Na+ currents, activation k (slope factor) [1, 4]: 4.749 ± 0.744 (12) | Na+ currents, inactivation V1/2 [1, 4]: −32.552 ± 2.084 (12) mV | Na+ currents, inactivation k (slope factor) [1, 4]: −12.003 ± 1.936 (12) | expression of phosphorylated CRMP2 at site 514 (GSK-3β) [3]: no differences | expression of phosphorylated CRMP2 at site 522 (Cdk5) [3]: no differences | expression of phosphorylated CRMP2 at site 555 (RhoK) [3]: no differences
